The values that follow come from paper PMC10226132, “First-in-Class Selective Inhibitors of the Lysine Acetyltransferase KAT8” (Journal of Medicinal Chemistry, 2023).

Common to all, as to type: biochemical
The target in one assay is T1, KDAC8 (Homo sapiens, UniProt Q9BY41).
T1 sequence (Q9BY41 1-377): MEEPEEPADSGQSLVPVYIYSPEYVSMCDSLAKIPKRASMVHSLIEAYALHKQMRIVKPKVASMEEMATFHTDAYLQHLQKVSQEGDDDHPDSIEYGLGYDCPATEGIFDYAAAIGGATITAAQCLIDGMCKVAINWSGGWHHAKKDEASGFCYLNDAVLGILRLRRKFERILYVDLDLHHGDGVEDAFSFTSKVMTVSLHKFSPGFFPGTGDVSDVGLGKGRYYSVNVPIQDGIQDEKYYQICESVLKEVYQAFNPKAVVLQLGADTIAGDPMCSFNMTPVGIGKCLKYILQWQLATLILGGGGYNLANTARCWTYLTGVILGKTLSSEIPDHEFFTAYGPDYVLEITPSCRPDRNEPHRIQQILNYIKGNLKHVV
Description: KDAC inhibition assay, KDAC8. As to conditions: mean of three technical replicates. Here is the method:
(§1) KDAC1, 2, 3 6, and 8 inhibition assays were performed as described previously.[52] Briefly, the relevant human recombinant KDAC was diluted in an assay buffer with the following composition: 150 mM NaCl, 25 mM Tris–HCl (pH 8.0), 2.7 mM KCl, and 1 mM MgCl2; BSA (0.1 mg/mL) was also added in the case of KDAC1. Forty microliters of this solution were added to 10 μL of each inhibitor ([…]) and 50 μL of KDAC Assay substrate (Boc-Lys-(Ac)-AMC, 7–100 μM final concentration, depending on the KDAC isoform), and the resulting solution was mixed. […] After thorough mixing of the resulting solution, the plate was covered and incubated at 37 °C for 25 min and the fluorescence (λemission = 460 nm; λexcitation = 390 nm) was measured on a EnSight Multimode Plate Reader (Perkin Elmer). The shown values are average of three technical replicates ± SD.

Another assay has as its target T2, KAT5 (Homo sapiens, UniProt Q92993).
T2 construct: full length human KAT5 (25 nM) and KAT7 (25 nM) were used; purchased Reaction Biology Corporation
Description: HotSpot KAT assay, KAT5. Conditions: for inhibition at 200 µM: read-out: % inhibition at 200 μM KAT5 (25 nM), NI = no inhibition. The procedure:
The effects of the compounds on other KATs were determined using the HotSpot KAT assay (Reaction Biology Corporation, Malvern, PA, USA) according to the supplier’s procedure. The recombinant catalytic domains of human KAT2A (aa 323–837, 15 nM), KAT2B (aa 492–658, 25 nM), KAT3B (aa 1284–1672, 1 nM), KAT6A (aa 488–778, 10 nM), KAT6B (aa 657–1069, 10 nM), and full length human KAT5 (25 nM) and KAT7 (25 nM) were used. Each enzyme was incubated with the relevant histone peptide [H3 peptide for KAT2A, KAT2B, KAT3B, KAT6A, and KAT7 (2.5–5 μM, depending on the KAT isoform); H2A peptide for KAT5 (1.25 μM); H4 peptide for KAT6B (2.5 μM)] as a substrate and radio-isotope-labeled [^3H]Acetyl-CoA (0.2–1.5 μM, depending on the KAT isoform) as an acetyl donor in the assay buffer [50 mM Tris–HCl (pH 8.0), 50 mM NaCl, 0.1 mM EDTA, 1 mM DTT, 0.1 mM PMSF, 1% DMSO] for 1 h at 30 °C in the presence or absence of various compounds (1% DMSO final) titrated in a 2-fold serial dilution starting at 200 μM. Histone peptide acetylation was assessed by liquid scintillation counting using a Tri-Carb 2800TR Liquid Scintillation Analyzer (Perkin Elmer). Experiments were performed in biological triplicates. Signal reduction compared to control was plotted (as inhibition percentage) as a function of compound concentration. In cases in which an IC50 was calculated, the values were fitted by nonlinear regression (GraphPad Prism 8.0).

The target in another assay is T3, KDAC6 (Homo sapiens, UniProt Q9UBN7).
T3 sequence (Q9UBN7 1-1215): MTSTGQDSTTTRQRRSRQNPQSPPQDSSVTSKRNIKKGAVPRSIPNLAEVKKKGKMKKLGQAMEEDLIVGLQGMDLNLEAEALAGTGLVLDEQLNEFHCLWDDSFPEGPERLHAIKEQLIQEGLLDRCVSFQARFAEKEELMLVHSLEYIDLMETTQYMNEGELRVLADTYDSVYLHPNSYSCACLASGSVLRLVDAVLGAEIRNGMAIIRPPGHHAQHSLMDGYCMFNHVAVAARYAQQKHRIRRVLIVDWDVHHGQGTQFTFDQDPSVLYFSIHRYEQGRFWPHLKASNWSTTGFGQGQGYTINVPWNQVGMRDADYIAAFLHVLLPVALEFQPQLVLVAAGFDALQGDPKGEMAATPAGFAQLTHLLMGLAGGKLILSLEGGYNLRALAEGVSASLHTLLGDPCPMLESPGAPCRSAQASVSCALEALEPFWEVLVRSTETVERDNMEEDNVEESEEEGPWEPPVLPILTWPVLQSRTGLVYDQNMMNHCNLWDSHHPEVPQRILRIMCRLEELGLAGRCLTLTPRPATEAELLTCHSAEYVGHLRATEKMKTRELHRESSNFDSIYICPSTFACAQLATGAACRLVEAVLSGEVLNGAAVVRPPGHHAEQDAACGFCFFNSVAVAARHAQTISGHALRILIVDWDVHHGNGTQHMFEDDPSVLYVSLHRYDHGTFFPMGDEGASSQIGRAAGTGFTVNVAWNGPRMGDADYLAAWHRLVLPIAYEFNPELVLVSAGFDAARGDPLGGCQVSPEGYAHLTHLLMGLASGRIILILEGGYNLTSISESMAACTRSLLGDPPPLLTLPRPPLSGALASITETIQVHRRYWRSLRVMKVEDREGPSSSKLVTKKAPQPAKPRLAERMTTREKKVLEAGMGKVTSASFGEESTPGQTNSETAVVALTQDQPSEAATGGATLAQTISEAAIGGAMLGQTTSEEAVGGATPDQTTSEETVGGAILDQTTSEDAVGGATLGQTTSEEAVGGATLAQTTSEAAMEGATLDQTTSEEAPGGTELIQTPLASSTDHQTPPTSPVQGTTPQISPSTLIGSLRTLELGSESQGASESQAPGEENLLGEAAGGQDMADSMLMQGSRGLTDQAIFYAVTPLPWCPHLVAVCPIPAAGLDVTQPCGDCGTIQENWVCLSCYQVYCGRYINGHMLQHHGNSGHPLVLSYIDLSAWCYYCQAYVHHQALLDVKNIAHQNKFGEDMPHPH
Description: KDAC inhibition assay, KDAC6. Conditions: mean of three technical replicates. The procedure: as §1

Another assay has as its target KDAC2 (Homo sapiens, UniProt Q92769). Description: KDAC inhibition assay, KDAC2. Conditions: mean of three technical replicates. The procedure: as §1

T2 sequence (Q92993 whole entry): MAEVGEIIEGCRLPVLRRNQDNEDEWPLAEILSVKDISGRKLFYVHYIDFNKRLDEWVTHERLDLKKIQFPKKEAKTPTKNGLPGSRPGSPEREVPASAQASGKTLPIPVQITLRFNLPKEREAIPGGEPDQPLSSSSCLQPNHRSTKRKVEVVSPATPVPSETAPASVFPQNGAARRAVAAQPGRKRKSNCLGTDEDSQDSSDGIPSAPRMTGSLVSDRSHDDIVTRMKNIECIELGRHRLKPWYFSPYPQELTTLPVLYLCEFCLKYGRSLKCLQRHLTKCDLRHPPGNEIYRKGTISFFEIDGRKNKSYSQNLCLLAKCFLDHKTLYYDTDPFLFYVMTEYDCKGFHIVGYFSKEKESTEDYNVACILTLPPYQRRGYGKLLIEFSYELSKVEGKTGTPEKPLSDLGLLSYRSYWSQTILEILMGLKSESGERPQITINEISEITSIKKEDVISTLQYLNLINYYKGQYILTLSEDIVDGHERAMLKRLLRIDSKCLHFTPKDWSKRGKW
KDAC2, sequence (Q92769 whole entry): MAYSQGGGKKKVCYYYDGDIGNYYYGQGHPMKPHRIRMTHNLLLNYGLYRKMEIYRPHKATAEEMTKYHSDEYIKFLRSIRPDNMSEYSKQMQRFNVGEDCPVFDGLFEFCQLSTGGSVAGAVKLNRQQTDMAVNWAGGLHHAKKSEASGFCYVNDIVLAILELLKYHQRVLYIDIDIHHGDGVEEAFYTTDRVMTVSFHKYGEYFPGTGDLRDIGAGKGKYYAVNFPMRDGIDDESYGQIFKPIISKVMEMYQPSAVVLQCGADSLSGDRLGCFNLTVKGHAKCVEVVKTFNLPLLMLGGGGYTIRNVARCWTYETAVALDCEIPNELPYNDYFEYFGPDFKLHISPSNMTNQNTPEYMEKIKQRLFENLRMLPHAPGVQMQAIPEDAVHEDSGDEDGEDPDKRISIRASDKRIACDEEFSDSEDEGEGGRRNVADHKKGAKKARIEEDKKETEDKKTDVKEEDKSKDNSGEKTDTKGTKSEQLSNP

For the compound `CC1=NN(c2ccc(C(=O)O)cc2)C(=O)/C1=C\c1ccc[nH]1` [Compound 19, (Z)-4-(4-((1H-Pyrrol-2-yl)methylene)-3-methyl-5-oxo-4,5-dihydro-1H-pyrazol-1-yl)benzoic Acid], the inhibition at 50 µM against KDAC8 was determined as 0.02%; on KDAC6 it was 0.4%; on KDAC2, 0.01%. For the same compound, the figures for the inhibition at 100 µM on KDAC8, on KDAC6 and on KDAC2 were 0.8%, 1.3% and 0.7%, respectively. In addition, the inhibition at 200 µM on KAT5 was 11.3 ± 0.3%.
In the case of `O=C(O)c1ccc(N2N=C(c3ccccc3)/C(=C/c3ccc[nH]3)C2=O)cc1` [Compound 34, (Z)-4-(4-((1H-Pyrrol-2-yl)methylene)-5-oxo-3-phenyl-4,5-dihydro-1H-pyrazol-1-yl)benzoic Acid], the inhibition at 50 µM is 0.04% against KDAC8, 0.6% on KDAC6 and 0.03% at KDAC2. Moreover, the results for the inhibition at 100 µM at KDAC8, against KDAC6 and on KDAC2 were 0.6%, 2.1% and 0.4%, respectively. On KAT5, the inhibition at 200 µM is 18.5 ± 1.3%.
Take `CC1=NN(c2ccc(C(=O)O)cc2)C(=O)/C1=C\c1ccc(-c2cc(C)c(C)cc2[N+](=O)[O-])o1` [VII (C646), reference compound]: the inhibition at 50 µM against KDAC8 came to 77.6%; at KDAC6 it was 87.2%; at KDAC2, 75.4%. The inhibition at 100 µM against KDAC8 stood at 89.1%; at KDAC6, 98.1%; at KDAC2, 87.6%. Besides, at KAT5 (control compound, read-out: IC50 KAT5 (25 nM)), the IC50 is 18.3 µM.
